In patent publication US8084649B2, “Herbicides” (Syngenta Crop Protection, inc., priority 2007, dated 2011):

These molecules were tested on Echinochloa crus-galli (ECHCG) (assay: Post-emergence herbicidal activity, glasshouse pot test). Conditions: Echinochloa crus-galli, rate 125 g/ha, evaluated after 14 or 15 days, read-out: Post-emergence activity, ECHCG (100=total damage to plant; 0=no damage to plant).
Assay type: in vivo
Summary of the method: (§1)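 Damage rated visually on a 0–100 scale (100 = total damage) 14 or 15 days after spraying. Pots of sterilised standard soil; plants treated post-emergence after 10 days glasshouse cultivation with an aqueous spray from an acetone/Emulsogen EL/N-methylpyrrolidone/dipropylene glycol monomethyl ether/X-77 formulation.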

Q: How did the pest or weed control at 125 g/ha turn out when `CCc1cc(C)cc(CC)c1C1=C(OC(=O)C(C)(C)C)CC(CC(C)SC(C)C)CC1=O` (stereo not drawn) [Compound P60] was run?
A: The pest or weed control at 125 g/ha was 70%.

Q: Which pest or weed control at 125 g/ha does the source give for `CCc1cc(C)cc(CC)c1C1=C(OC(=O)C(CC)CC)CC2(CCOCC2)CC1=O` [Compound P14] here?
A: The pest or weed control at 125 g/ha was 60%.

Q: With `CCc1cc(C)cc(CC)c1C1=C(OC(=O)C(C)CC)CC2(CCOCC2)CC1=O` (stereo not drawn) [Compound P13] as the molecule, how does the pest or weed control at 125 g/ha read?
A: Its pest or weed control at 125 g/ha is 100%.

Each molecule was assayed on Setaria faberi (SETFA) in the same assay as above. Conditions: Setaria faberi, rate 125 g/ha, evaluated after 14 or 15 days, read-out: Post-emergence activity, SETFA (100=total damage to plant; 0=no damage to plant).
Assay type: in vivo
Summary of the method: as §1

Q: `CCc1cc(C)cc(CC)c1C1=C(OC(=O)C(C)(C)C)CC(CC(C)SC(C)C)CC1=O` (stereo not drawn) [Compound P60] was tested. Which pest or weed control at 125 g/ha did it give?
A: Its pest or weed control at 125 g/ha is 60%.

Q: Which pest or weed control at 125 g/ha does the source give for `CCc1cc(C)cc(CC)c1C1=C(OC(=O)C(CC)CC)CC2(CCOCC2)CC1=O` [Compound P14] here?
A: The pest or weed control at 125 g/ha was 60%.

Q: For `CCc1cc(C)cc(CC)c1C1=C(OC(=O)C(C)CC)CC2(CCOCC2)CC1=O` (stereo not drawn) [Compound P13], which pest or weed control at 125 g/ha is on record?
A: Its pest or weed control at 125 g/ha is 90%.

What follows are molecules tested on Digitaria sanguinalis (DIGSA) in the same assay as above. Conditions: Digitaria sanguinalis, rate 125 g/ha, evaluated after 14 or 15 days, read-out: Post-emergence activity, DIGSA (100=total damage to plant; 0=no damage to plant).
Assay type: in vivo
Summary of the method: as §1

Q: Which pest or weed control at 125 g/ha does the source give for `CCc1cc(C)cc(CC)c1C1=C(OC(=O)C(C)(C)C)CC(CC(C)SC(C)C)CC1=O` (stereo not drawn) [Compound P60] here?
A: The pest or weed control at 125 g/ha was 60%.

Q: `CCc1cc(C)cc(CC)c1C1=C(OC(=O)C(CC)CC)CC2(CCOCC2)CC1=O` [Compound P14] was tested. Which pest or weed control at 125 g/ha did it give?
A: The pest or weed control at 125 g/ha was 70%.

Q: Which pest or weed control at 125 g/ha does the source give for `CCc1cc(C)cc(CC)c1C1=C(OC(=O)C(C)CC)CC2(CCOCC2)CC1=O` (stereo not drawn) [Compound P13] here?
A: The pest or weed control at 125 g/ha was 100%.

The molecules below were run on Lolium perenne (LOLPE) in the same assay as above. Conditions: Lolium perenne, rate 125 g/ha, evaluated after 14 or 15 days, read-out: Post-emergence activity, LOLPE (100=total damage to plant; 0=no damage to plant).
Assay type: in vivo
Summary of the method: as §1

Q: `CCc1cc(C)cc(CC)c1C1=C(OC(=O)C(C)(C)C)CC(CC(C)SC(C)C)CC1=O` (stereo not drawn) [Compound P60] was tested. Which pest or weed control at 125 g/ha did it give?
A: Its pest or weed control at 125 g/ha is 70%.

Q: With `CCc1cc(C)cc(CC)c1C1=C(OC(=O)C(CC)CC)CC2(CCOCC2)CC1=O` [Compound P14] as the molecule, how does the pest or weed control at 125 g/ha read?
A: Its pest or weed control at 125 g/ha is 80%.

Q: How did the pest or weed control at 125 g/ha turn out when `CCc1cc(C)cc(CC)c1C1=C(OC(=O)C(C)CC)CC2(CCOCC2)CC1=O` (stereo not drawn) [Compound P13] was run?
A: The pest or weed control at 125 g/ha was 90%.

The molecules below were run on Alopecurus myosuroides (ALOMY) in the same assay as above. Conditions: Alopecurus myosuroides, rate 125 g/ha, evaluated after 14 or 15 days, read-out: Post-emergence activity, ALOMY (100=total damage to plant; 0=no damage to plant).
Assay type: in vivo
Summary of the method: as §1

Q: `CCc1cc(C)cc(CC)c1C1=C(OC(=O)C(C)(C)C)CC(CC(C)SC(C)C)CC1=O` (stereo not drawn) [Compound P60] was tested. Which pest or weed control at 125 g/ha did it give?
A: Its pest or weed control at 125 g/ha is 70%.

Q: `CCc1cc(C)cc(CC)c1C1=C(OC(=O)C(CC)CC)CC2(CCOCC2)CC1=O` [Compound P14] was tested. Which pest or weed control at 125 g/ha did it give?
A: The pest or weed control at 125 g/ha was 80%.

Q: `CCc1cc(C)cc(CC)c1C1=C(OC(=O)C(C)CC)CC2(CCOCC2)CC1=O` (stereo not drawn) [Compound P13] was tested. Which pest or weed control at 125 g/ha did it give?
A: Its pest or weed control at 125 g/ha is 90%.

These molecules were tested on Avena fatua (AVEFA) in the same assay as above. Conditions: Avena fatua, rate 125 g/ha, evaluated after 14 or 15 days, read-out: Post-emergence activity, AVEFA (100=total damage to plant; 0=no damage to plant).
Assay type: in vivo
Summary of the method: as §1

Q: For `CCc1cc(C)cc(CC)c1C1=C(OC(=O)C(C)(C)C)CC(CC(C)SC(C)C)CC1=O` (stereo not drawn) [Compound P60], which pest or weed control at 125 g/ha is on record?
A: The pest or weed control at 125 g/ha was 50%.

Q: For `CCc1cc(C)cc(CC)c1C1=C(OC(=O)C(CC)CC)CC2(CCOCC2)CC1=O` [Compound P14], which pest or weed control at 125 g/ha is on record?
A: The pest or weed control at 125 g/ha was 80%.

Q: `CCc1cc(C)cc(CC)c1C1=C(OC(=O)C(C)CC)CC2(CCOCC2)CC1=O` (stereo not drawn) [Compound P13] was tested. Which pest or weed control at 125 g/ha did it give?
A: Its pest or weed control at 125 g/ha is 100%.

What follows are molecules tested on Echinochloa crus-galli (ECHCG) (assay: Pre-emergence herbicidal activity, glasshouse pot test). Conditions: Echinochloa crus-galli, 480 h, rate 500 g/ha, evaluated after 20 days, read-out: Pre-emergence activity, ECHCG (100=total damage to plant; 0=no damage to plant).
Assay type: in vivo
Summary of the method: (§2)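 One day after sowing in sterilised soil, pots receive an aqueous spray made from the compound dissolved in acetone and a formulation of emulsifier, N-methylpyrrolidone, glycol ether and X-77 wetter. Injury is assessed 20 days later against untreated expectations, scored from 0 (no damage) to 100.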

Q: For `CCc1cc(C)cc(CC)c1C1=C(OC(=O)C(C)(C)C)CC(CC(C)SC(C)C)CC1=O` (stereo not drawn) [Compound P60], which pest or weed control at 500 g/ha is on record?
A: The pest or weed control at 500 g/ha was 90%.

Q: For `CCc1cc(C)cc(CC)c1C1=C(OC(=O)C(CC)CC)CC2(CCOCC2)CC1=O` [Compound P14], which pest or weed control at 500 g/ha is on record?
A: Its pest or weed control at 500 g/ha is 90%.

Q: `CCc1cc(C)cc(CC)c1C1=C(OC(=O)C(C)CC)CC2(CCOCC2)CC1=O` (stereo not drawn) [Compound P13] was tested. Which pest or weed control at 500 g/ha did it give?
A: The pest or weed control at 500 g/ha was 100%.

What follows are molecules tested on Setaria faberi (SETFA) in the same assay as above. Conditions: Setaria faberi, 480 h, rate 500 g/ha, evaluated after 20 days, read-out: Pre-emergence activity, SETFA (100=total damage to plant; 0=no damage to plant).
Assay type: in vivo
Summary of the method: as §2

Q: With `CCc1cc(C)cc(CC)c1C1=C(OC(=O)C(C)(C)C)CC(CC(C)SC(C)C)CC1=O` (stereo not drawn) [Compound P60] as the molecule, how does the pest or weed control at 500 g/ha read?
A: The pest or weed control at 500 g/ha was 90%.

Q: How did the pest or weed control at 500 g/ha turn out when `CCc1cc(C)cc(CC)c1C1=C(OC(=O)C(CC)CC)CC2(CCOCC2)CC1=O` [Compound P14] was run?
A: Its pest or weed control at 500 g/ha is 100%.

Q: How did the pest or weed control at 500 g/ha turn out when `CCc1cc(C)cc(CC)c1C1=C(OC(=O)C(C)CC)CC2(CCOCC2)CC1=O` (stereo not drawn) [Compound P13] was run?
A: The pest or weed control at 500 g/ha was 100%.

The molecules below were run on Digitaria sanguinalis (DIGSA) in the same assay as above. Conditions: Digitaria sanguinalis, 480 h, rate 500 g/ha, evaluated after 20 days, read-out: Pre-emergence activity, DIGSA (100=total damage to plant; 0=no damage to plant).
Assay type: in vivo
Summary of the method: as §2

Q: With `CCc1cc(C)cc(CC)c1C1=C(OC(=O)C(C)(C)C)CC(CC(C)SC(C)C)CC1=O` (stereo not drawn) [Compound P60] as the molecule, how does the pest or weed control at 500 g/ha read?
A: Its pest or weed control at 500 g/ha is 100%.

Q: Which pest or weed control at 500 g/ha does the source give for `CCc1cc(C)cc(CC)c1C1=C(OC(=O)C(CC)CC)CC2(CCOCC2)CC1=O` [Compound P14] here?
A: Its pest or weed control at 500 g/ha is 100%.

Q: How did the pest or weed control at 500 g/ha turn out when `CCc1cc(C)cc(CC)c1C1=C(OC(=O)C(C)CC)CC2(CCOCC2)CC1=O` (stereo not drawn) [Compound P13] was run?
A: Its pest or weed control at 500 g/ha is 100%.

What follows are molecules tested on Lolium perenne (LOLPE) in the same assay as above. Conditions: Lolium perenne, 480 h, rate 500 g/ha, evaluated after 20 days, read-out: Pre-emergence activity, LOLPE (100=total damage to plant; 0=no damage to plant).
Assay type: in vivo
Summary of the method: as §2

Q: With `CCc1cc(C)cc(CC)c1C1=C(OC(=O)C(C)(C)C)CC(CC(C)SC(C)C)CC1=O` (stereo not drawn) [Compound P60] as the molecule, how does the pest or weed control at 500 g/ha read?
A: Its pest or weed control at 500 g/ha is 100%.

Q: `CCc1cc(C)cc(CC)c1C1=C(OC(=O)C(CC)CC)CC2(CCOCC2)CC1=O` [Compound P14] was tested. Which pest or weed control at 500 g/ha did it give?
A: Its pest or weed control at 500 g/ha is 100%.

Q: How did the pest or weed control at 500 g/ha turn out when `CCc1cc(C)cc(CC)c1C1=C(OC(=O)C(C)CC)CC2(CCOCC2)CC1=O` (stereo not drawn) [Compound P13] was run?
A: Its pest or weed control at 500 g/ha is 100%.

What follows are molecules tested on Alopecurus myosuroides (ALOMY) in the same assay as above. Conditions: Alopecurus myosuroides, 480 h, rate 500 g/ha, evaluated after 20 days, read-out: Pre-emergence activity, ALOMY (100=total damage to plant; 0=no damage to plant).
Assay type: in vivo
Summary of the method: as §2

Q: For `CCc1cc(C)cc(CC)c1C1=C(OC(=O)C(C)(C)C)CC(CC(C)SC(C)C)CC1=O` (stereo not drawn) [Compound P60], which pest or weed control at 500 g/ha is on record?
A: The pest or weed control at 500 g/ha was 80%.

Q: With `CCc1cc(C)cc(CC)c1C1=C(OC(=O)C(CC)CC)CC2(CCOCC2)CC1=O` [Compound P14] as the molecule, how does the pest or weed control at 500 g/ha read?
A: Its pest or weed control at 500 g/ha is 100%.

Q: With `CCc1cc(C)cc(CC)c1C1=C(OC(=O)C(C)CC)CC2(CCOCC2)CC1=O` (stereo not drawn) [Compound P13] as the molecule, how does the pest or weed control at 500 g/ha read?
A: Its pest or weed control at 500 g/ha is 100%.

These molecules were tested on Avena fatua (AVEFA) in the same assay as above. Conditions: Avena fatua, 480 h, rate 500 g/ha, evaluated after 20 days, read-out: Pre-emergence activity, AVEFA (100=total damage to plant; 0=no damage to plant).
Assay type: in vivo
Summary of the method: as §2

Q: How did the pest or weed control at 500 g/ha turn out when `CCc1cc(C)cc(CC)c1C1=C(OC(=O)C(C)(C)C)CC(CC(C)SC(C)C)CC1=O` (stereo not drawn) [Compound P60] was run?
A: Its pest or weed control at 500 g/ha is 0%.

Q: With `CCc1cc(C)cc(CC)c1C1=C(OC(=O)C(CC)CC)CC2(CCOCC2)CC1=O` [Compound P14] as the molecule, how does the pest or weed control at 500 g/ha read?
A: The pest or weed control at 500 g/ha was 100%.

Q: For `CCc1cc(C)cc(CC)c1C1=C(OC(=O)C(C)CC)CC2(CCOCC2)CC1=O` (stereo not drawn) [Compound P13], which pest or weed control at 500 g/ha is on record?
A: The pest or weed control at 500 g/ha was 100%.
